Results as given in the NIST ThermoML archive (doi:10.1016/j.tca.2015.06.017).
Numbers after ± are expanded uncertainties.

Experiment: xn = mol fraction of the nth substance listed
Conditions: Liquid, Vibrating tube method

CCCCCl [1-chlorobutane] + CCCCCCC
mass density [kg/m3]
Conditions	313.15 K	323.15 K
100 kPa, x2 = 0.0508	–	838.56 ± 0.24
100 kPa, x2 = 0.0994	–	825.81 ± 0.24
100 kPa, x2 = 0.2013	–	800.61 ± 0.24
100 kPa, x2 = 0.3015	–	777.72 ± 0.24
100 kPa, x2 = 0.4008	–	756.76 ± 0.24
100 kPa, x2 = 0.5026	–	736.89 ± 0.25
100 kPa, x2 = 0.6012	–	719.03 ± 0.25
100 kPa, x2 = 0.7003	–	702.32 ± 0.25
100 kPa, x2 = 0.7995	–	686.71 ± 0.25
100 kPa, x2 = 0.9011	–	671.83 ± 0.25
100 kPa, x2 = 0.9494	–	665.13 ± 0.25
2000 kPa, x2 = 0.0508	–	840.94 ± 0.25
2000 kPa, x2 = 0.0994	–	828.16 ± 0.25
2000 kPa, x2 = 0.2013	–	802.98 ± 0.26
2000 kPa, x2 = 0.3015	–	780.1 ± 0.26
2000 kPa, x2 = 0.4008	–	759.09 ± 0.26
2000 kPa, x2 = 0.5026	–	739.17 ± 0.26
2000 kPa, x2 = 0.6012	–	721.27 ± 0.27
2000 kPa, x2 = 0.7003	–	704.55 ± 0.27
2000 kPa, x2 = 0.7995	–	688.99 ± 0.27
2000 kPa, x2 = 0.9011	–	674.07 ± 0.27
2000 kPa, x2 = 0.9494	–	667.35 ± 0.28
5000 kPa, x2 = 0.0508	–	844.77 ± 0.27
5000 kPa, x2 = 0.0994	–	831.99 ± 0.27
5000 kPa, x2 = 0.2013	–	806.76 ± 0.28
5000 kPa, x2 = 0.3015	–	783.86 ± 0.28
5000 kPa, x2 = 0.4008	–	762.86 ± 0.29
5000 kPa, x2 = 0.5026	–	742.92 ± 0.29
5000 kPa, x2 = 0.6012	–	724.95 ± 0.3
5000 kPa, x2 = 0.7003	–	708.22 ± 0.3
5000 kPa, x2 = 0.7995	–	692.58 ± 0.31
5000 kPa, x2 = 0.9011	–	677.65 ± 0.31
5000 kPa, x2 = 0.9494	–	670.89 ± 0.31
7000 kPa, x2 = 0.0508	–	847.24 ± 0.28
7000 kPa, x2 = 0.0994	–	834.44 ± 0.28
7000 kPa, x2 = 0.2013	–	809.21 ± 0.29
7000 kPa, x2 = 0.3015	–	786.24 ± 0.3
7000 kPa, x2 = 0.4008	–	765.22 ± 0.3
7000 kPa, x2 = 0.5026	–	745.31 ± 0.31
7000 kPa, x2 = 0.6012	–	727.32 ± 0.32
7000 kPa, x2 = 0.7003	–	710.53 ± 0.32
7000 kPa, x2 = 0.7995	–	694.9 ± 0.33
7000 kPa, x2 = 0.9011	–	679.93 ± 0.33
7000 kPa, x2 = 0.9494	–	673.17 ± 0.34
10000 kPa, x2 = 0.0508	–	850.72 ± 0.3
10000 kPa, x2 = 0.0994	–	837.9 ± 0.3
10000 kPa, x2 = 0.2013	–	812.61 ± 0.31
10000 kPa, x2 = 0.3015	–	789.63 ± 0.32
10000 kPa, x2 = 0.4008	–	768.57 ± 0.33
10000 kPa, x2 = 0.5026	–	748.59 ± 0.34
10000 kPa, x2 = 0.6012	–	730.62 ± 0.35
10000 kPa, x2 = 0.7003	–	713.78 ± 0.36
10000 kPa, x2 = 0.7995	–	698.05 ± 0.36
10000 kPa, x2 = 0.9011	–	683.06 ± 0.37
10000 kPa, x2 = 0.9494	–	676.28 ± 0.37
20000 kPa, x2 = 0.0508	–	861.47 ± 0.34
20000 kPa, x2 = 0.0994	–	848.64 ± 0.35
20000 kPa, x2 = 0.2013	–	823.24 ± 0.37
20000 kPa, x2 = 0.3015	–	800.16 ± 0.39
20000 kPa, x2 = 0.4008	–	779.03 ± 0.41
20000 kPa, x2 = 0.5026	767.37 ± 0.42	758.92 ± 0.43
20000 kPa, x2 = 0.6012	749.02 ± 0.44	740.82 ± 0.44
20000 kPa, x2 = 0.7003	731.86 ± 0.45	723.85 ± 0.46
20000 kPa, x2 = 0.7995	715.81 ± 0.46	708.08 ± 0.47
20000 kPa, x2 = 0.9011	700.5 ± 0.48	692.95 ± 0.48
20000 kPa, x2 = 0.9494	693.56 ± 0.48	686.11 ± 0.49
30000 kPa, x2 = 0.0508	880.41 ± 0.37	871.14 ± 0.38
30000 kPa, x2 = 0.0994	867.36 ± 0.39	858.24 ± 0.4
30000 kPa, x2 = 0.2013	841.53 ± 0.42	832.76 ± 0.43
30000 kPa, x2 = 0.3015	818.07 ± 0.45	809.58 ± 0.46
30000 kPa, x2 = 0.4008	796.54 ± 0.47	788.23 ± 0.48
30000 kPa, x2 = 0.5026	776 ± 0.5	767.99 ± 0.51
30000 kPa, x2 = 0.6012	757.6 ± 0.52	749.78 ± 0.53
30000 kPa, x2 = 0.7003	740.3 ± 0.54	732.75 ± 0.55
30000 kPa, x2 = 0.7995	724.2 ± 0.56	716.78 ± 0.57
30000 kPa, x2 = 0.9011	708.75 ± 0.58	701.56 ± 0.59
30000 kPa, x2 = 0.9494	701.75 ± 0.59	694.65 ± 0.6
40000 kPa, x2 = 0.0508	888.86 ± 0.41	880.1 ± 0.42
40000 kPa, x2 = 0.0994	875.75 ± 0.43	867.14 ± 0.44
40000 kPa, x2 = 0.2013	849.87 ± 0.47	841.52 ± 0.48
40000 kPa, x2 = 0.3015	826.26 ± 0.5	818.18 ± 0.52
40000 kPa, x2 = 0.4008	804.63 ± 0.54	796.79 ± 0.55
40000 kPa, x2 = 0.5026	783.99 ± 0.57	776.38 ± 0.58
40000 kPa, x2 = 0.6012	765.46 ± 0.6	758.03 ± 0.61
40000 kPa, x2 = 0.7003	748.11 ± 0.63	740.88 ± 0.64
40000 kPa, x2 = 0.7995	731.87 ± 0.66	724.82 ± 0.67
40000 kPa, x2 = 0.9011	716.29 ± 0.68	709.43 ± 0.69
40000 kPa, x2 = 0.9494	709.25 ± 0.69	702.46 ± 0.71
50000 kPa, x2 = 0.0508	896.61 ± 0.43	888.16 ± 0.45
50000 kPa, x2 = 0.0994	883.49 ± 0.46	875.18 ± 0.48
50000 kPa, x2 = 0.2013	857.51 ± 0.51	849.47 ± 0.53
50000 kPa, x2 = 0.3015	833.86 ± 0.56	826.06 ± 0.57
50000 kPa, x2 = 0.4008	812.1 ± 0.6	804.52 ± 0.61
50000 kPa, x2 = 0.5026	791.37 ± 0.64	784.01 ± 0.66
50000 kPa, x2 = 0.6012	772.75 ± 0.68	765.61 ± 0.69
50000 kPa, x2 = 0.7003	755.31 ± 0.71	748.29 ± 0.73
50000 kPa, x2 = 0.7995	738.98 ± 0.75	732.14 ± 0.76
50000 kPa, x2 = 0.9011	723.31 ± 0.78	716.65 ± 0.79
50000 kPa, x2 = 0.9494	716.21 ± 0.79	709.64 ± 0.81
60000 kPa, x2 = 0.0508	903.88 ± 0.46	895.85 ± 0.48
60000 kPa, x2 = 0.0994	890.72 ± 0.49	882.82 ± 0.51
60000 kPa, x2 = 0.2013	864.67 ± 0.55	856.99 ± 0.57
60000 kPa, x2 = 0.3015	840.92 ± 0.6	833.5 ± 0.62
60000 kPa, x2 = 0.4008	819.09 ± 0.66	811.83 ± 0.67
60000 kPa, x2 = 0.5026	798.31 ± 0.71	791.24 ± 0.72
60000 kPa, x2 = 0.6012	779.58 ± 0.75	772.72 ± 0.77
60000 kPa, x2 = 0.7003	762 ± 0.79	755.34 ± 0.81
60000 kPa, x2 = 0.7995	745.59 ± 0.83	739.04 ± 0.85
60000 kPa, x2 = 0.9011	729.82 ± 0.87	723.43 ± 0.88
60000 kPa, x2 = 0.9494	722.67 ± 0.89	716.36 ± 0.9
65000 kPa, x2 = 0.0508	907.45 ± 0.47	899.38 ± 0.49
65000 kPa, x2 = 0.0994	894.26 ± 0.5	886.34 ± 0.52
65000 kPa, x2 = 0.2013	868.13 ± 0.57	860.51 ± 0.58
65000 kPa, x2 = 0.3015	844.29 ± 0.63	836.96 ± 0.64
65000 kPa, x2 = 0.4008	822.37 ± 0.68	815.25 ± 0.7
65000 kPa, x2 = 0.5026	801.56 ± 0.74	794.63 ± 0.75
65000 kPa, x2 = 0.6012	782.77 ± 0.78	776.07 ± 0.8
65000 kPa, x2 = 0.7003	765.13 ± 0.83	758.61 ± 0.85
65000 kPa, x2 = 0.7995	748.66 ± 0.87	742.31 ± 0.89
65000 kPa, x2 = 0.9011	732.82 ± 0.91	726.65 ± 0.93
65000 kPa, x2 = 0.9494	725.63 ± 0.93	719.56 ± 0.95
